pKi: −log10 of the molar value. Where “and” joins values, the source holds several entries; their conditions need not be identical. Equal entries are not always repeated. Some results are limits rather than exact numbers.

For experiment [1], the target named is Metabotropic glutamate receptor 2 (Homo sapiens, UniProt Q14416).
Experiment [2] deals with Metabotropic glutamate receptor 1 (Rattus norvegicus, UniProt P23385).
For experiment [3], the target named is Metabotropic glutamate receptor 5 (Rattus norvegicus, UniProt P31424).
Chain of Metabotropic glutamate receptor 5 (P31424 whole entry): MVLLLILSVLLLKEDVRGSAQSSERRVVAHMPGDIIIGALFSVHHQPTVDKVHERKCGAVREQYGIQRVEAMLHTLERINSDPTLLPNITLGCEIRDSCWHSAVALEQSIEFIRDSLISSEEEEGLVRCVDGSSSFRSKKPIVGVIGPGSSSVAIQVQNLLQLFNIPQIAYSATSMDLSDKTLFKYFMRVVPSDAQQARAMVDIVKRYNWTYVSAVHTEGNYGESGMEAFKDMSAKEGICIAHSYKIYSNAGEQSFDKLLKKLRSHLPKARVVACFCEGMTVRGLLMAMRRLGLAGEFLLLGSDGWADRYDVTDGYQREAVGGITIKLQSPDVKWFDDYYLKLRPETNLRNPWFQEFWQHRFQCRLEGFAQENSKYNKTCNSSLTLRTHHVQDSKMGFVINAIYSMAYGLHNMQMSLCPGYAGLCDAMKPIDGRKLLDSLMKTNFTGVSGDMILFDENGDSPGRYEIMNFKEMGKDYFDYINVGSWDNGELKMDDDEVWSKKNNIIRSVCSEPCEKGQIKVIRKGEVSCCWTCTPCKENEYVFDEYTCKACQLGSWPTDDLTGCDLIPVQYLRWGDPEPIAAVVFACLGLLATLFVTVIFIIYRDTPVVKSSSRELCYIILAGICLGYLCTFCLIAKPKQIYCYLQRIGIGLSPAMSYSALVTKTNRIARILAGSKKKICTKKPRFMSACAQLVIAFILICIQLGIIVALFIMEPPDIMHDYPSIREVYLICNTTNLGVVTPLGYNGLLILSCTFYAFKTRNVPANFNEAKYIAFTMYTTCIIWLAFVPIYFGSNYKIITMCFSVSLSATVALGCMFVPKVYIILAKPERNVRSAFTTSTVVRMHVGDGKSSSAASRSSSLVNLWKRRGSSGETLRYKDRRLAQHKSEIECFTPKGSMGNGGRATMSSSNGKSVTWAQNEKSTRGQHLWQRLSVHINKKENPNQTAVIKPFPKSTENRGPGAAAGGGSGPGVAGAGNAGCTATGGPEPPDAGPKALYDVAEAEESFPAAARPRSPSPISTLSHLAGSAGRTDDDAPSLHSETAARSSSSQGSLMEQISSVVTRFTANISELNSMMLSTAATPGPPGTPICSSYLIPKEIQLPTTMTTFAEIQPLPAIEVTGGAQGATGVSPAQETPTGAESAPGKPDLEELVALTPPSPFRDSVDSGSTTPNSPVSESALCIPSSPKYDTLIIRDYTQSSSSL

Chain of Metabotropic glutamate receptor 2 (Q14416 whole entry): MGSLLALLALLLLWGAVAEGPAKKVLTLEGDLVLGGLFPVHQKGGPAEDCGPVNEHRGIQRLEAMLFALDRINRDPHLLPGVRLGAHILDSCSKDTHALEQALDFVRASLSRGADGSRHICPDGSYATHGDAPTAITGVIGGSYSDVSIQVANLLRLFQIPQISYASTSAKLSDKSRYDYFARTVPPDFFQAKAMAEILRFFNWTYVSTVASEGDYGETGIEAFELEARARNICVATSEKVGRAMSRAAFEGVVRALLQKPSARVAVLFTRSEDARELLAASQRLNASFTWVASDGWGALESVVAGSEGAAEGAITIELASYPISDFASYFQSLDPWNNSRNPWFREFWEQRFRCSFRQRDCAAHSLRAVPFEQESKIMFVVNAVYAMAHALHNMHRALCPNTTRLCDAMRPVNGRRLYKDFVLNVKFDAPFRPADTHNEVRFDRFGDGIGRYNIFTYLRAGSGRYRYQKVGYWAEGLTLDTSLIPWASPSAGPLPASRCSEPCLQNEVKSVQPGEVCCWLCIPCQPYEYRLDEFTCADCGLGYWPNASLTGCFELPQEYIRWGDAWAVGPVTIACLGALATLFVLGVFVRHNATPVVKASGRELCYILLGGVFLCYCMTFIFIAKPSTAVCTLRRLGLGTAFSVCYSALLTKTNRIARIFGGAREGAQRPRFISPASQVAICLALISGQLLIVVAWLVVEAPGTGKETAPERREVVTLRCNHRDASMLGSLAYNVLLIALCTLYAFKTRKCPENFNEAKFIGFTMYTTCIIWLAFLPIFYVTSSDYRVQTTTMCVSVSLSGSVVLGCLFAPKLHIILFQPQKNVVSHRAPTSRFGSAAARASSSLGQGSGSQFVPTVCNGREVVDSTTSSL
Chain of Metabotropic glutamate receptor 1 (P23385 whole entry): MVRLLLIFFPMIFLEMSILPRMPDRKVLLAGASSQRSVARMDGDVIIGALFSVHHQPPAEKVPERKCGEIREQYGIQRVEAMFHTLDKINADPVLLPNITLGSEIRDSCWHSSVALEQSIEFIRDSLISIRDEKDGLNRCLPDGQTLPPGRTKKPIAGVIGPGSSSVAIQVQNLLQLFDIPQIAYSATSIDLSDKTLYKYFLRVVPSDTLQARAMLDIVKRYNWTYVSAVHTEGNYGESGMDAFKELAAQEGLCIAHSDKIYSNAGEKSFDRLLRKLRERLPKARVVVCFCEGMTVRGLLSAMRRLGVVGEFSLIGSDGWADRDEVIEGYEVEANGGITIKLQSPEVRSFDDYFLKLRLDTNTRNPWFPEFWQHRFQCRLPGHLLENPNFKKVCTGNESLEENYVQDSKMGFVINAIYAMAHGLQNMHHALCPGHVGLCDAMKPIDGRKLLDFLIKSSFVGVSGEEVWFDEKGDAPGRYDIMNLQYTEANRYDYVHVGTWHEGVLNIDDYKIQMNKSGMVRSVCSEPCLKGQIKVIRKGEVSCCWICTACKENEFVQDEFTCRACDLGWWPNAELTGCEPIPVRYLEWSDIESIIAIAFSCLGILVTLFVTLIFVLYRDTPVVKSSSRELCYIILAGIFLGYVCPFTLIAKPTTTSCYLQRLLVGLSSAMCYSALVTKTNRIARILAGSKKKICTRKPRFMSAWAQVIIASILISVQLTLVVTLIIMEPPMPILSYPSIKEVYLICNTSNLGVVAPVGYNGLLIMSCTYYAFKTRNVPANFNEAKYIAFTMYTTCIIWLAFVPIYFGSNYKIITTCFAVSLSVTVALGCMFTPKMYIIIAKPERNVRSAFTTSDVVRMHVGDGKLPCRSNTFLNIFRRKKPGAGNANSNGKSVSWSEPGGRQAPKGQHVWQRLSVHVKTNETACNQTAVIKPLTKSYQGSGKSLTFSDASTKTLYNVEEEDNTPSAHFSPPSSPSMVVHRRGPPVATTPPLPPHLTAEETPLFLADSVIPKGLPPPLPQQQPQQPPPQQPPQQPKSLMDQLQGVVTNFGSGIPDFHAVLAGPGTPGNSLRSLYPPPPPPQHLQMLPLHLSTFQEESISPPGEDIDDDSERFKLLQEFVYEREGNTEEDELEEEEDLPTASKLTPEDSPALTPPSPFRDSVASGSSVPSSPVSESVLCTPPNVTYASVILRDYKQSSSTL

`C=C1C[C@@H]2COC(=O)[C@]2(Cc2ccc3ccccc3c2)C1`: the pKi was 6.85 in experiment [1]; less than 5.00 in experiment [2]; 6.62 and 6.30 in experiment [3].

Usually pKi stands for −log10 of the Ki, conventionally taken in molar units.
